Columns and labels:
[1] = Bleaching of dye solution during a typical PCR protocol on a real-time PCR instrument; format: physicochemical; conditions: excitation for fluorescence measurement and repeated temperature changes between 55 and 95° C., LIGHTCYCLER 480
genomic DNA = experiment: Light stability: fluorescence of a mixture of dye and genomic DNA during continuous light exposure; format: physicochemical; conditions: for fluorescence during continuous light exposure: dye + genomic DNA
Protocol: The light stability of R27, which is representative for the nine described dyes, was compared to established dyes already used for such applications. The fluorescence of a mixture of the respective dye and genomic DNA was measured during continuous light exposure.

Which results are given for COc1cc2c(cc1OC)N(C)C(CCCC[N+](C)(C)C)=N/C2=C\c1sc2ccccc2[n+]1C.[I-].[I-] [R 27]?
bleaching of the dye [1]: no recognizable bleaching; fluorescence during continuous light exposure (genomic DNA; light exposure 0 min): 100%; fluorescence during continuous light exposure (genomic DNA; light exposure 10 min): 99%; fluorescence during continuous light exposure (genomic DNA; light exposure 30 min): 98%; fluorescence during continuous light exposure (genomic DNA; light exposure 60 min): 99%; fluorescence during continuous light exposure (genomic DNA; light exposure 180 min): 97%; fluorescence during continuous light exposure (genomic DNA; light exposure 300 min): 96%; light stability compared to established dyes (genomic DNA; versus SYBR Green I and LC Green Plus): distinctly higher

Which “fluorescence during continuous light exposure” value (genomic DNA; light exposure 0 min) does the source give for CCCN(CCCN(C)C)c1cc(C=C2Sc3ccccc3N2C)c2ccccc2[n+]1-c1ccccc1 [SYBR Green I, [2-[N-(-3-dimethylaminopropyl)-N-propylamino]-4-[2,3-dihydro-3-methyl-(benzo-1,3-thiazol-2-yl)-methylidene]-1-phenyl-quinolinium]+, reference compound] here?
Its value is 100%.

And the “fluorescence during continuous light exposure” value (genomic DNA; light exposure 10 min)?
The value was 87%.

What about the “fluorescence during continuous light exposure” value (genomic DNA; light exposure 30 min) of the same compound?
The value was 77%.

What about the “fluorescence during continuous light exposure” value (genomic DNA; light exposure 60 min) of the same compound?
The value was 70%.

What about the “fluorescence during continuous light exposure” value (genomic DNA; light exposure 180 min) of the same compound?
The value was 40%.

And the “fluorescence during continuous light exposure” value (genomic DNA; light exposure 300 min)?
The value was 24%.
